In patent US12508275B2, “Neomycin based compounds, and pharmaceutical use thereof” (UNIVERSITÉ COTE D'AZUR, priority 2019, dated 2025):

Assays:
GB5 cells [1] = test: TMZ assay: GSC sensitivity to Temozolomide (XTT); format: cell-based, human; settings: three days; for increase of TMZ sensitivity: GB5, TMZ 400 uM plus compound at 10 uM; for increase of TMZ sensitivity, maximal effect: GB5, TMZ 400 uM plus compound at 50 uM
Method: FIG. 5: Sensitivity to TMZ was assessed by comparing the percentage of dead cells between TMZ treated GB5 and TMZ treated GB5 in combination with Compound 9a. GB5 cells have been treated with 400 uM TMZ alone or in combination with growing concentrations of Compounds 9a-b and 18b. The results are the meaning of at least two separate experiments.
IV—TMZ assay: TG6 and GB5 were seeded at 2000 cells/well in 96 wells plate in NS34+ or treated with medium containing 400 uM of TMZ alone or mixed with 10, 25 and 50 uM of Compounds 9a-b and 18a-b. Cultures were incubated 4 days and the cell viability has been evaluated by XTT assays and a count of living and dead cells with trypan blue staining.
Temozolomide is the chemotherapy of reference for GBM treatment. In order to assess whether the compounds might sensitize GSC to TMZ, TMZ (400 uM) pretreated GB5 cells were incubated with 10, 25 and 50 uM of Compounds 9a-b and 18b. Three days later the experiment is stop and the cells were subjected to an XTT assays. […] Cell toxicity was confirmed by trypan blue staining.

GB5 = test: XTT toxicity assay on GSC (GB5); format: cell-based
Method: FIG. 4: Determination of compound toxicity on GSC and normal human cells. (A) GB5 were incubated with growing concentration of Compounds 9a-b and 18a. (B) human normal neural stem cell (NNSC), human normal kidney cells (NHEK), human normal hepatocytes (HEPRG) and (C) human endothelial cells (HUVEC) were treated with growing concentration of Compound 9a. 7 days later, the cells were subjected to an XTT assays as described in the method section. The results are the meaning of at least two separate experiments. Cell death was confirmed by trypan blue staining (not shown).
II—XTT assay: TG6 and GB5 were seeded at 2000 cells/well in 96 wells plate in NS34+ alone or containing 10, 20, 25, 50 and 100 uM of Compounds 9a-b and 18a-b. Cultures were incubated 4 days and the cell proliferation was evaluated as indicated by the manufacturer.
V—Toxicity tests: NNSC, GB5, TG6, HEK293, and HepaRG, HUVEC were seeded at 2000 cells/well in 96 wells plate in their respective culture mediums alone or containing growing concentration from 10 to 500 uM of Compounds 9a-b. Cultures were incubated 4 days and the cellular toxicity has been evaluated by XTT assays. Cell viability has been also assessed by counting living and dead cells with trypan blue staining.
XTT assays allows, through cell metabolism measurement, to determine a cytotoxic/cytostatic effects. Compounds 9a-b and 18a were tested for their eventual toxicity by XTT assays as described in the material and method section. At the working concentrations 10 to 25 uM, the compounds are not toxic for GSC (FIG. 4A). […] Compound 9a toxicity was further tested on normal neural stem cells (NNSC), human kidney (NHEK), human hepatocytes (HEPRG) and human endothelial cells (HUVEC). The compound is not toxic on NNSC, NHEK, HEPRG and HUVEC cells when used between 10 to 50 uM. At 100 uM and above, Compound 9a was toxic (FIG. 4).

GB5 cells [2] = test: Clonal expansion (clonal proliferation) of GB5; format: cell-based, human; settings: GB5, spheroids counted after two and three weeks
Method: (§1) FIG. 2: Compounds 9a-b and 18a-b effect on stemness marker expression, clonal expansion and mitosis in GB5 cells. (A) NESTIN expression was assessed by immunofluorescence in GB5 treated with increasing amount of Compounds 9a-b and 18a. The number of NESTIN positive cells was counted for each treatment and express as percentage of the control (100%). The results are the meaning of at least two separate experiments. […] (C) Clonal expansion analysis was performed with GB5 cells as described in the material and method section. Two and three weeks later, the number of spheroids is counted and reported as percentage of the initial number of cells in the well. The results are the meaning of a minimum of two separate experiments. (D) The number of mitosis in the culture was determined by the detection of the number of cells positive for histone H3 phosphorylated on ser-10 (H3-ser10). H3-ser10 expression was assessed by immunofluorescence in GB5 treated with increasing amount of Compounds 9a-b and 18a. The number of positive cells was counted for each treatment and express as percentage of the control (100%). The results are the meaning of at least two separate experiments.
Clonal proliferation: TG6 and GB5 were seeded at 10 cells/well in 96 wells plate in NS34+ medium alone or containing growing concentration of Compounds 9a-b and 18a-b. Immediately after seeding, the real number of cells in the well was determined by direct count. Two and three weeks later, the resulting number of spheroids in each well was evaluated by a direct count. The % of clonal efficiency was calculated in dividing […].
(§2) It was further investigated the effects of selected compounds on GSC clonal expansion as well as their capacity of mitosis (FIGS. 2B and C). Compounds 9a-b and 18a treatment altered GSC clonal expansion and mitosis. The most efficient inhibition of clonal expansion was provided by Compound 9a treatment (IC50<10 uM) while both Compounds 9a-b were the most efficient for mitosis inhibition (IC50<10 uM) (FIGS. 2C and D).

GB5 cells [3] = test: Mitosis: cells positive for histone H3 phosphorylated on ser-10, GB5; format: cell-based, human; settings: GB5, H3-ser10 positive cells
Method: as §1
(§3) III—Immunofluorescence assay: TG6 and GB5 were seeded at 2000 cells/well in 24 wells plate in NS34+ alone or containing 5, 7.5, 10, 12.5, 15, 20 and 25 uM of Compounds 9a-b and 18a-b. Cultures were incubated 4 days and the cells were fixed with 4% paraformaldehyde for 10 min at room temperature then washed with PBS. Cells were then incubated with ammonium chloride at 20 mM 5 min at room temperature and washed 5 times with PBS. Blocking and hybridization were realized in PBS containing 10% FCS and 0.1% Triton X100. Anti-Nestin and anti-H3Phospho serine 10 antibodies were incubated 2 hours at room temperature then washed with PBS. Fluorescence coupled secondary antibodies and Hoechst 33342 nuclei counterstaining reagent were hybridized one hour at room temperature. Cells were mounted with anti-fading agent then imaged, counted and quantified using fluorescent microscopy (TiE Nikon) and NiS software (Nikon).
as §2

NESTIN expression in GB5 = test: NESTIN expression by immunofluorescence in GB5; format: cell-based, human; settings: GB5, seven days, growing concentrations
Method: as §1, §3
Patient derived GSC (GB5) have been treated during seven days, with growing concentrations of compounds that have been capable of inducing changes of GSC morphology. To assess the consequence on stemness maintenance, we observed, by immunofluorescence, the expression of stemness and progenitor cells such as the NESTIN protein. […] The strongest effect has been obtained with Compounds 9a treatment (IC50=10 uM).

[4] = test system: Patient derived GSC (GB5); test: Effect of compound treatment on GSC phenotype (adhesion, morphology), GB5; format: cell-based, human; settings: three days
Text: FIG. 1: phase contrast images of GB5 morphology untreated (CTL DMSO) or treated with the indicated compound (“Cpd” denotes compound) at the indicated concentration. Control cells grow as non-adherent spheroids composed of numerous GSC. When differentiated the cells become adherent and spread on the culture dish.
B—Cell culture: Patient-derived cells GB5 were isolated from surgical resection of human primary GBM provided by the department of neurosurgery of the University Hospital of Nice. TG6 (patient-derived cell from primary GBM) and HNNSC25 (Human Normal Neural Stem Cells) have been provided by Dr Hervé Chneiweiss, University of Pierre and Marie Curie, Paris. The resulting primary cultures (GB5, TG6, HNNSC25) were grown in NS34+ medium containing EGF and bFGF (DMEM-F12 1/1 ratio, 10 mM glutamine, 10 mM Hepes, 0.025% Sodium bicarbonate, N2, G5, and B27).
Patient derived GSC (GB5) were treated with growing concentration of Compounds 9a-b and 18a-b (10 to 100 uM) during three days). […] Similar results have been obtained with TG6.

NCC1OC(OC2C(Cn3cc(CCC(=O)NCCc4nc(-c5nc(C(=O)NCCCCN=C(N)N)cs5)cs4)nn3)OC(OC3C(O)C(N)CC(N)C3OC3OC(CN)C(O)C(O)C3N)C2O)C(N)C(O)C1O (stereo not drawn) [Compound 9b, N-(4-((Diaminomethylene)amino)butyl)-2′-(2-(3-(1-methyl-1H-1,2,3-triazol-4-yl)propanamido)ethyl)-[2,4′-bithiazole]-4-carboxamide-neomycin]
increase of TMZ sensitivity (GB5 cells [1]): 1.8 fold
increase of TMZ sensitivity, maximal effect (GB5 cells [1]): 2.8 fold
toxicity for GSC (XTT) (GB5; GB5, 50 uM and higher): relative toxicity
toxicity for GSC (XTT) (GB5; GB5, 10 to 25 uM): not toxic
GSC clonal expansion (GB5 cells [2]): altered
GSC mitosis (GB5 cells [3]): altered
IC50 (GB5 cells [3]; Homo sapiens, read-out: mitosis inhibition IC50): < 10 µM
NESTIN expression (NESTIN expression in GB5): drop in NESTIN expression
adhesion and changes in GSC morphology ([4]; GB5, 10 uM): induced adhesion and changes in GSC morphology

NCCCCNCCCNC(=O)c1csc(-c2csc(CCNC(=O)CCC(=O)NCC3OC(OC4C(O)C(N)CC(N)C4OC4OC(CN)C(O)C(O)C4N)C(O)C3OC3OC(CN)C(O)C(O)C3N)n2)n1 (stereo not drawn) [Compound 18a, 4-((2-(4-((3-((4-aminobutyl)amino)propyl)carbamoyl)-[2,4′-bithiazol]-2′-yl)ethyl)amino)-4-oxobutanoic-amido-neomycin]
toxicity for GSC (XTT) (GB5; GB5, 50 uM and higher): relative toxicity
toxicity for GSC (XTT) (GB5; GB5, 10 to 25 uM): not toxic
GSC clonal expansion (GB5 cells [2]): altered
GSC mitosis (GB5 cells [3]): altered
NESTIN expression (NESTIN expression in GB5): drop in NESTIN expression
adhesion and changes in GSC morphology ([4]; GB5, 10 uM): induced adhesion and changes in GSC morphology

NCCCNC(=O)c1csc(-c2csc(CCNC(=O)CCC(=O)NCC3OC(OC4C(O)C(N)CC(N)C4OC4OC(CN)C(O)C(O)C4N)C(O)C3OC3OC(CN)C(O)C(O)C3N)n2)n1 (stereo not drawn) [Compound 18b, 4-((2-(4-((3-aminopropyl)carbamoyl)-[2,4′-bithiazol]-2′-yl)ethyl)amino)-4-oxobutanoic-amido-neomycin]
increase of TMZ sensitivity (GB5 cells [1]): 1.7 fold
increase of TMZ sensitivity, maximal effect (GB5 cells [1]): 3 fold
adhesion and changes in GSC morphology ([4]; GB5, 25 uM): induced adhesion and changes in GSC morphology
